Measured values published in ChEMBL document CHEMBL3232857, “Selective and potent morpholinone inhibitors of the MDM2-p53 protein-protein interaction” (J Med Chem, 2014).

Experiments:
[1] = (§1) Intrinsic clearance in human hepatocytes measured per 10^6 cells; type: ADME, cell-based, Hepatocyte; conditions: read-out: CLH
[2] = (§2) Intrinsic clearance in rat hepatocytes measured per 10^6 cells; type: ADME, cell-based, Hepatocyte; conditions: read-out: CLH
[3] = Intrinsic clearance in dog hepatocytes measured per 10^6 cells; type: ADME, cell-based, Canis lupus familiaris, Hepatocyte
[4] = Drug metabolism in human hepatocytes assessed as (2S,3S,4S,5R,6S)-6-(2-((2R,5R,6R)-4-((S)-2-(tert-butylsulfonyl)-1-cyclopropylethyl)-6-(3-chlorophenyl)-5-(4-chlorophenyl)-3-oxomorpholin-2-yl)acetoxy)-3,4,5-trihydroxytetrahydro-2H-pyran-2-carboxylic acid formation at 10 uM by LC-MS/MS analysis; type: ADME, cell-based, Hepatocyte
[5] = Drug metabolism in rat hepatocytes assessed as (2S,3S,4S,5R,6S)-6-(2-((2R,5R,6R)-4-((S)-2-(tert-butylsulfonyl)-1-cyclopropylethyl)-6-(3-chlorophenyl)-5-(4-chlorophenyl)-3-oxomorpholin-2-yl)acetoxy)-3,4,5-trihydroxytetrahydro-2H-pyran-2-carboxylic acid formation at 10 uM by LC-MS/MS analysis; type: ADME, cell-based, Hepatocyte
[6] = Drug metabolism in rat hepatocytes assessed as 2-((2R,5R,6R)-6-(3-chlorophenyl)-5-(4-chlorophenyl)-4-((S)-1-cyclopropyl-2-(1-hydroxy-2-methylpropan-2-ylsulfonyl)ethyl)-3-oxomorpholin-2-yl)acetic acid formation at 10 uM by LC-MS/MS analysis; type: ADME, cell-based, Hepatocyte
[7] = Half life in rat at 0.5 mg/kg, iv; type: ADME, organism-based; design: dose 0.5 mg/kg, route intravenous; conditions: in vivo
[8] = Drug metabolism in cynomolgus monkey hepatocytes assessed as 2-((2R,5R,6R)-6-(3-chlorophenyl)-5-(4-chlorophenyl)-4-((S)-1-cyclopropyl-2-(1-hydroxy-2-methylpropan-2-ylsulfonyl)ethyl)-3-oxomorpholin-2-yl)acetic acid formation at 10 uM by LC-MS/MS analysis; type: ADME, cell-based, Macaca fascicularis, Hepatocyte
[9] = (§3) Intrinsic clearance in mouse hepatocytes measured per 10^6 cells; type: ADME, cell-based, Hepatocyte; conditions: read-out: CLH
[10] = Drug metabolism in human hepatocytes assessed as 2-((2R,5R,6R)-6-(3-chlorophenyl)-5-(4-chlorophenyl)-4-((S)-1-cyclopropyl-2-(1-hydroxy-2-methylpropan-2-ylsulfonyl)ethyl)-3-oxomorpholin-2-yl)acetic acid formation at 10 uM by LC-MS/MS analysis; type: ADME, cell-based, Hepatocyte
[11] = Clearance in rat at 0.5 mg/kg, iv; type: ADME, organism-based; design: dose 0.5 mg/kg, route intravenous; conditions: in vivo
[12] = Drug metabolism in dog hepatocytes assessed as 2-((2R,5R,6R)-6-(3-chlorophenyl)-5-(4-chlorophenyl)-4-((S)-1-cyclopropyl-2-(1-hydroxy-2-methylpropan-2-ylsulfonyl)ethyl)-3-oxomorpholin-2-yl)acetic acid formation at 10 uM by LC-MS/MS analysis; type: ADME, cell-based, Canis lupus familiaris, Hepatocyte
[13] = Drug metabolism in dog hepatocytes assessed as (2S,3S,4S,5R,6S)-6-(2-((2R,5R,6R)-4-((S)-2-(tert-butylsulfonyl)-1-cyclopropylethyl)-6-(3-chlorophenyl)-5-(4-chlorophenyl)-3-oxomorpholin-2-yl)acetoxy)-3,4,5-trihydroxytetrahydro-2H-pyran-2-carboxylic acid formation at 10 uM by LC-MS/MS analysis; type: ADME, cell-based, Canis lupus familiaris, Hepatocyte
[14] = Drug metabolism in mouse hepatocytes assessed as 2-((2R,5R,6R)-6-(3-chlorophenyl)-5-(4-chlorophenyl)-4-((S)-1-cyclopropyl-2-(1-hydroxy-2-methylpropan-2-ylsulfonyl)ethyl)-3-oxomorpholin-2-yl)acetic acid formation at 10 uM by LC-MS/MS analysis; type: ADME, cell-based, Hepatocyte
[15] = Drug metabolism in cynomolgus monkey hepatocytes assessed as (2S,3S,4S,5R,6S)-6-(2-((2R,5R,6R)-4-((S)-2-(tert-butylsulfonyl)-1-cyclopropylethyl)-6-(3-chlorophenyl)-5-(4-chlorophenyl)-3-oxomorpholin-2-yl)acetoxy)-3,4,5-trihydroxytetrahydro-2H-pyran-2-carboxylic acid formation at 10 uM by LC-MS/MS analysis; type: ADME, cell-based, Macaca fascicularis, Hepatocyte
[16] = Drug metabolism in mouse hepatocytes assessed as (2S,3S,4S,5R,6S)-6-(2-((2R,5R,6R)-4-((S)-2-(tert-butylsulfonyl)-1-cyclopropylethyl)-6-(3-chlorophenyl)-5-(4-chlorophenyl)-3-oxomorpholin-2-yl)acetoxy)-3,4,5-trihydroxytetrahydro-2H-pyran-2-carboxylic acid formation at 10 uM by LC-MS/MS analysis; type: ADME, cell-based, Hepatocyte
Hepatocyte [17] = assay: as §2; type: ADME, cell-based
Hepatocyte [18] = assay: as §3; type: ADME, cell-based
Hepatocyte [19] = assay: as §1; type: ADME, cell-based

For CC[C@@H](CN(c1ccccc1F)S(=O)(=O)C1CC1)N1C(=O)[C@@H](CC(=O)O)O[C@H](c2cccc(Cl)c2)[C@H]1c1ccc(Cl)cc1, the hepatocyte CLint [1] was less than 0.1 µL/min/1e6 cells.

CC[C@@H](CN(c1ccccc1)S(=O)(=O)C1CC1)N1C(=O)[C@@H](CC(=O)O)O[C@H](c2cccc(Cl)c2)[C@H]1c1ccc(Cl)cc1 showed a hepatocyte CLint [1] of 3.3 µL/min/1e6 cells.

For CC[C@@H](CS(=O)(=O)N(C)C)N1C(=O)[C@@H](CC(=O)O)O[C@H](c2cccc(Cl)c2)[C@H]1c1ccc(Cl)cc1, the hepatocyte CLint [1] was 19 µL/min/1e6 cells.

CC[C@@H](CN(c1ccc(F)cc1)S(=O)(=O)C1CC1)N1C(=O)[C@@H](CC(=O)O)O[C@H](c2cccc(Cl)c2)[C@H]1c1ccc(Cl)cc1 gave a hepatocyte CLint [1] of 7 µL/min/1e6 cells.

CC[C@@H](CN(c1ccccc1F)S(C)(=O)=O)N1C(=O)[C@@H](CC(=O)O)O[C@H](c2cccc(Cl)c2)[C@H]1c1ccc(Cl)cc1 gave a hepatocyte CLint [1] of 4.7 µL/min/1e6 cells.

CC[C@@H](CN(c1ccccc1F)S(=O)(=O)C(C)C)N1C(=O)[C@@H](CC(=O)O)O[C@H](c2cccc(Cl)c2)[C@H]1c1ccc(Cl)cc1 gave a hepatocyte CLint [1] of 15 µL/min/1e6 cells.

With CC[C@@H](CS(=O)(=O)CC(C)(C)C)N1C(=O)[C@@H](CC(=O)O)O[C@H](c2cccc(Cl)c2)[C@H]1c1ccc(Cl)cc1 the hepatocyte CLint [1] was 8.6 µL/min/1e6 cells.

Molecule CC[C@@H](CS(=O)(=O)C1COC1)N1C(=O)[C@@H](CC(=O)O)O[C@H](c2cccc(Cl)c2)[C@H]1c1ccc(Cl)cc1 has a hepatocyte CLint [1] of 6.6 µL/min/1e6 cells.

With CC(C)(C)S(=O)(=O)C[C@H](C1CC1)N1C(=O)[C@@H](CC(=O)O)O[C@H](c2cccc(Cl)c2)[C@H]1c1ccc(Cl)cc1 the hepatocyte CLint [2] was 3 µL/min/1e6 cells, the hepatocyte CLint ([3]; read-out: CLH) was 13 µL/min/1e6 cells and the Drug metabolism [4] was “metabolite_notdetected”. For the same molecule, the Drug metabolism [5] was “metabolite_detected”, the Drug metabolism [6] was “metabolite_detected” and the half-life [7] was 5.7 h. For the same molecule, the Drug metabolism [8] was “metabolite_detected”, the hepatocyte CLint [9] was 6 µL/min/1e6 cells and the Drug metabolism [10] was “metabolite_notdetected”. The clearance [11] was 5.83 mL/min/kg, the Drug metabolism [12] was “metabolite_notdetected” and the hepatocyte CLint [1] was 1 µL/min/1e6 cells. The Drug metabolism [13] was “metabolite_notdetected”, the Drug metabolism [14] was “metabolite_detected” and the Drug metabolism [15] was “metabolite_detected”. For the same molecule, the Drug metabolism [16] was “metabolite_detected”.

In the case of CC[C@@H](CS(=O)(=O)C(C)C)N1C(=O)[C@@H](CC(=O)O)O[C@H](c2cccc(Cl)c2)[C@H]1c1ccc(Cl)cc1, the hepatocyte CLint [1] is reported as 2.1 µL/min/1e6 cells.

In the case of C[C@@H](CS(=O)(=O)C(C)(C)C)N1C(=O)[C@@H](CC(=O)O)O[C@H](c2cccc(Cl)c2)[C@H]1c1ccc(Cl)cc1, the hepatocyte CLint [1] is reported as 0.7 µL/min/1e6 cells.

With CC[C@@H](CN(c1ccc(F)cc1F)S(=O)(=O)C1CC1)N1C(=O)[C@@H](CC(=O)O)O[C@H](c2cccc(Cl)c2)[C@H]1c1ccc(Cl)cc1 the hepatocyte CLint [1] was 4.8 µL/min/1e6 cells.

With CC[C@@H](CS(=O)(=O)C(C)(C)C)N1C(=O)[C@@H](CC(=O)O)O[C@H](c2cccc(Cl)c2)[C@H]1c1ccc(Cl)cc1 the hepatocyte CLint (Hepatocyte [17]) was 1.8 µL/min/1e6 cells, the hepatocyte CLint [3] was 15.5 µL/min/1e6 cells and the half-life [7] was 4.1 h. For the same molecule, the hepatocyte CLint (Hepatocyte [18]) was 12 µL/min/1e6 cells, the clearance [11] was 3.83 mL/min/kg and the hepatocyte CLint [1] was 1.9 µL/min/1e6 cells.

For CC(C)(C)[C@@H](CS(=O)(=O)C(C)(C)C)N1C(=O)[C@@H](CC(=O)O)O[C@H](c2cccc(Cl)c2)[C@H]1c1ccc(Cl)cc1, the hepatocyte CLint [1] was 2.1 µL/min/1e6 cells.

For CC[C@@H](CS(=O)(=O)C1CCCC1)N1C(=O)[C@@H](CC(=O)O)O[C@H](c2cccc(Cl)c2)[C@H]1c1ccc(Cl)cc1, the hepatocyte CLint [1] was 12 µL/min/1e6 cells.

CC(C)[C@@H](CS(=O)(=O)C(C)(C)C)N1C(=O)[C@@H](CC(=O)O)O[C@H](c2cccc(Cl)c2)[C@H]1c1ccc(Cl)cc1 gave a half-life [7] of 6 h, a clearance [11] of 1.83 mL/min/kg and a hepatocyte CLint [1] of 1.7 µL/min/1e6 cells.

In the case of CC(C)(C)S(=O)(=O)C[C@H](CC(F)(F)F)N1C(=O)[C@@H](CC(=O)O)O[C@H](c2cccc(Cl)c2)[C@H]1c1ccc(Cl)cc1, the half-life [7] is reported as 4 h, the clearance [11] is reported as 7.17 mL/min/kg and the hepatocyte CLint [1] is reported as 4.7 µL/min/1e6 cells.

CC[C@@H](CS(=O)(=O)C(C)(C)C)N1C(=O)[C@@](C)(CC(=O)O)C[C@H](c2cccc(Cl)c2)[C@H]1c1ccc(Cl)cc1 gave a hepatocyte CLint (Hepatocyte [17]) of 6.7 µL/min/1e6 cells, a hepatocyte CLint [3] of 68 µL/min/1e6 cells and a hepatocyte CLint (Hepatocyte [18]) of 18 µL/min/1e6 cells. For the same molecule, the hepatocyte CLint (Hepatocyte [19]) was 15 µL/min/1e6 cells.

For CC[C@@H](CS(=O)(=O)c1ccccc1)N1C(=O)[C@@H](CC(=O)O)O[C@H](c2cccc(Cl)c2)[C@H]1c1ccc(Cl)cc1, the hepatocyte CLint [1] was 10 µL/min/1e6 cells.
